Assay results as given in the NIST ThermoML archive (doi:10.1016/j.fluid.2009.11.017).
± gives the expanded uncertainty stated by the source.

Settings: Liquid, Ebulliometric method (Recirculating still)

| SMILES | vapor or sublimation pressure (365.49 K) [kPa] | vapor or sublimation pressure (376.75 K) [kPa] | vapor or sublimation pressure (385.55 K) [kPa] | vapor or sublimation pressure (392.87 K) [kPa] | vapor or sublimation pressure (398.66 K) [kPa] | vapor or sublimation pressure (404.09 K) [kPa] | vapor or sublimation pressure (408.83 K) [kPa] | vapor or sublimation pressure (413.06 K) [kPa] | vapor or sublimation pressure (417.28 K) [kPa] | vapor or sublimation pressure (344.79 K) [kPa] | vapor or sublimation pressure (357.27 K) [kPa] | vapor or sublimation pressure (365.3 K) [kPa] | vapor or sublimation pressure (372.09 K) [kPa] | vapor or sublimation pressure (377.89 K) [kPa] | vapor or sublimation pressure (382.18 K) [kPa] | vapor or sublimation pressure (386.25 K) [kPa] | vapor or sublimation pressure (390.38 K) [kPa] | vapor or sublimation pressure (394.05 K) [kPa] |
| --- | --- | --- | --- | --- | --- | --- | --- | --- | --- | --- | --- | --- | --- | --- | --- | --- | --- | --- |
| Cc1ccccc1C [1,2-dimethylbenzene] | 20.4 ± 0.35 | 30.14 ± 0.35 | 40.2 ± 0.36 | 50.43 ± 0.37 | 60.03 ± 0.38 | 70.27 ± 0.4 | 80.41 ± 0.41 | 90.54 ± 0.43 | 101.85 ± 0.44 |  |  |  |  |  |  |  |  |  |
| C1CCSC1 [tetrahydrothiophene] |  |  |  |  |  |  |  |  |  | 20.39 ± 0.35 | 32.09 ± 0.36 | 42.29 ± 0.37 | 52.61 ± 0.38 | 63.09 ± 0.39 | 71.89 ± 0.41 | 81.18 ± 0.42 | 91.67 ± 0.44 | 102.02 ± 0.45 |
